According to paper PMC5869871 (Investigational New Drugs, 2017):
Like-named read-outs stand apart in the source and are kept apart here. Marks after values point to notes of the source that are not given here. Blank lines part the entries; values can stand above or below the compound they belong to.

Assays:
[1] = Study 1: single-dose plasma pharmacokinetics of alisertib, M1 and M2 with and without esomeprazole or rifampin; settings: for t1/2 / half-life: arithmetic mean (SD); for AUC(0-inf): AUC0-inf; for AUC(0-t): AUC0-last
Experimental: Study 1 was a phase 1, open-label, fixed sequence, 2-cycle study in patients with advanced solid tumors or lymphomas.
In Cycle 2, patients also received single daily doses of either esomeprazole (40 mg QD delayed-release capsules) or rifampin (600 mg once daily [QD]) on Days 1 through 10.
Patients attended the study center on the day prior to the first dose (Day −1) for baseline assessments and returned on each of Days 1 to 4 of Cycle 1 and Days 8 to 11 of Cycle 2 for study assessments.
The quantitation range for the M1 assay was 2.00 to 1000 ng/mL, the assay precision ranged from 3.0 to 4.1% and the mean accuracy ranged from −1.5 to 0.3%. The quantitation range for the M2 assay was 2.00 to 1000 ng/mL, the assay precision ranged from 3.0 to 4.3% and the mean accuracy ranged from −1.1 to 0.7%. The same assays were used in Study 2, with similar values for assay precision and accuracy.
Pharmacokinetic parameters were estimated where data permitted using non-compartmental analysis with Phoenix™ WinNonlin® Version 6.3 (Pharsight Corporation, Mountain View, CA, USA). […] The AUC parameters were estimated using the linear-log trapezoidal rule.
The analyses utilized a fixed-sequence repeated measures mixed-effects linear model. All inferences were based on least squares (LS) means estimated from this model. All statistical analyses were conducted using SAS version 9.2 (SAS Institute, NC, USA). The sample size for both studies was based on the expected 90% CIs for the ratio of geometric mean AUCs. For Study 1, the within-patient CV was estimated to be 39.4% based on prior clinical PK data in cancer patients. […] For Study 2, the within-patient CV was estimated to be 31% based on more recent clinical PK data and a sample size of 16 patients was expected to provide 90% CIs of 0.83X, 1.21X.

[2] = tested on: CYP3A4; design: method as in Takeda data on file; settings: ref Takeda data on file; cited from earlier work
[3] = Study 2 safety assessment (adverse events, laboratory results, vital signs, ECG); type: in vivo, human
[4] = cited from earlier work
[5] = Study 2: single-dose plasma pharmacokinetics of alisertib, M1 and M2 with and without itraconazole; settings: for t1/2 / Tmax / half-life: single 30 mg alisertib ECT; for t1/2 / half-life: arithmetic mean (SD); for Tmax: median (minimum, maximum); for half-life: t1/2, Study 2
[6] = Study 1 safety assessment (adverse events, laboratory results, vital signs, ECG); type: in vivo, human
Experimental: Safety was evaluated based on the incidence of adverse events, and changes from baseline in vital signs, ECGs, weight and clinical laboratory results and ECOG status.

[7] = cited from earlier work; remark: listed apart in the source
[8] = in vivo; for AUC0-last / AUC(0-inf) / Cmax / Tmax / t1/2: human, 30 mg
[9] = human, in vivo; for mean t1/2 / median Tmax: 50 mg
[10] = human, plasma, oral, 50 mg, Study 1 esomeprazole arm, single 50 mg alisertib ECT, absence of esomeprazole, geometric mean (%CV)
[11] = human, plasma, oral, 50 mg, Study 1 rifampin arm, single 50 mg alisertib ECT, absence of rifampin, geometric mean (%CV)
[12] = human, plasma, oral, Study 1 esomeprazole arm, single 50 mg alisertib ECT, presence of esomeprazole 40 mg QD, geometric mean (%CV)
[13] = human, plasma, oral, Study 1 rifampin arm, single 50 mg alisertib ECT, presence of rifampin 600 mg QD, geometric mean (%CV)
[14] = Study 2, absence of itraconazole

SMILES: COc1cc(Nc2ncc3c(n2)-c2ccc(Cl)cc2C(c2c(F)cccc2OC)=NC3)ccc1C(=O)O [Alisertib]
increase in alisertib AUCinf (systemic exposure) by esomeprazole ([1]; Study 1, single 50 mg alisertib, esomeprazole 40 mg QD): 28%
decrease in alisertib AUCinf (AUC) by rifampin ([1]; Study 1, single 50 mg alisertib, rifampin 600 mg QD): approximately 50%
change in Cmax in the presence of rifampin ([1]; Study 1, single 50 mg alisertib, rifampin 600 mg QD versus alone, metabolites not statistically compared): did not alter
t1/2 ([1]; Study 1 esomeprazole arm, single 50 mg alisertib ECT, absence of esomeprazole): 16.1 (5.4)^b h
Tmax ([1]; Study 1 esomeprazole arm, single 50 mg alisertib ECT, presence of esomeprazole 40 mg QD, median (minimum, maximum)): 3 (1, 8) h
t1/2 ([1]; Study 1 rifampin arm, single 50 mg alisertib ECT, absence of rifampin): 16.3 (6.6)^h
AUC0-last ([1]; Study 1 rifampin arm, single 50 mg alisertib ECT, absence of rifampin, plasma, geometric mean (%CV)): 17,936 (43%) nM*h
t1/2 ([1]; Study 1 rifampin arm, single 50 mg alisertib ECT, presence of rifampin 600 mg QD): 8.2 (5.5)^i h
Tmax ([1]; Study 1 rifampin arm, single 50 mg alisertib ECT, presence of rifampin 600 mg QD, median (minimum, maximum)): 2.1 (1, 6) h
AUC(0-inf) [1, 10]: 20.3 µM·h
AUC(0-inf) [1, 11]: 16.2 µM·h
AUC(0-t) [1, 10]: 19.6 µM·h
Cmax [1, 10]: 1500 nM
Cmax [1, 11]: 1450 nM
Tmax ([1]; human, plasma, oral, 50 mg, Tmax, Study 1 esomeprazole arm, single 50 mg alisertib ECT, absence of esomeprazole, median (minimum, maximum)): 4 h
Tmax ([1]; human, plasma, oral, 50 mg, Tmax, Study 1 rifampin arm, single 50 mg alisertib ECT, absence of rifampin, median (minimum, maximum)): 4 h
Tmax ([1]; human, plasma, oral, 50 mg, median Tmax, Study 1, both treatment arms, 50 mg alisertib administered alone): 3 to 4 h
half-life ([1]; human, plasma, oral, 50 mg, t1/2, Study 1 esomeprazole arm, single 50 mg alisertib ECT, absence of esomeprazole): ~16 h
half-life ([1]; human, plasma, oral, 50 mg, t1/2, Study 1 rifampin arm, single 50 mg alisertib ECT, absence of rifampin): ~16 h
AUC(0-inf) [1, 12]: 25.9 µM·h
AUC(0-inf) [1, 13]: 8.65 µM·h
AUC(0-t) [1, 12]: 24.5 µM·h
AUC(0-t) [1, 13]: 9.06 µM·h
Cmax [1, 12]: 1720 nM
Tmax ([1]; human, plasma, oral, Tmax, Study 1 rifampin arm, single 50 mg alisertib ECT, presence of rifampin 600 mg QD, median (minimum, maximum)): ~2 h
half-life ([1]; human, plasma, oral, t1/2, Study 1 esomeprazole arm, single 50 mg alisertib ECT, presence of esomeprazole 40 mg QD): ~16 h
half-life ([1]; human, plasma, oral, t1/2, Study 1 rifampin arm, single 50 mg alisertib ECT, presence of rifampin 600 mg QD): ~8 h
CYP3A4-mediated metabolism as share of alisertib total clearance (estimated) [2]: approximately 60%
leukocytes and neutrophils over the course of the study [3]: decreases were observed
vital signs or ECG findings [3]: no notable trends
apparent oral clearance [4]: 4.25 L/h
t1/2 [5, 14]: 22.6 (10.3)^k h
Tmax [5, 14]: 2.9 (1.1, 10) h
t1/2 ([5]; Study 2, presence of itraconazole 200 mg QD): 25.4 (9.2)^l h
change in Cmax in the presence of itraconazole ([5]; Study 2, single 30 mg alisertib, itraconazole 200 mg QD versus alone): did not alter
AUC(0-inf) ([5]; human, plasma, oral, 30 mg): 14.8 µM·h
AUC(0-t) ([5]; human, plasma, oral, 30 mg): 13.5 µM·h
Cmax ([5]; human, plasma, oral, 30 mg): 986 nM
Tmax ([5]; human, plasma, oral, 30 mg, Tmax, Study 2, absence of itraconazole): ~3 h
half-life ([5]; human, plasma, oral, 30 mg, absence of itraconazole): ~23 h
Tmax ([5]; human, plasma, oral, Tmax, Study 2, presence of itraconazole 200 mg QD): 2.9 h
half-life ([5]; human, plasma, oral, presence of itraconazole 200 mg QD): ~25 h
patients who died during the study ([6]; Study 1, none deemed related to study treatment): Four
Alopecia, treatment-related ([6]; human, in vivo): 17 (31) n (%)
Anaemia, treatment-related ([6]; human, in vivo): 10 (18) n (%)
Decreased appetite, treatment-related ([6]; human, in vivo): 8 (15) n (%)
Dehydration, treatment-related ([6]; human, in vivo): 6 (11) n (%)
Diarrhea, treatment-related ([6]; human, in vivo): 18 (33) n (%)
Fatigue, treatment-related ([6]; human, in vivo): 14 (25) n (%)
Leukopenia, treatment-related ([6]; human, in vivo): 7 (13) n (%)
Nausea, treatment-related ([6]; human, in vivo): 10 (18) n (%)
Neutropenia, treatment-related ([6]; human, in vivo): 17 (31) n (%)
Stomatitis, treatment-related ([6]; human, in vivo): 14 (25) n (%)
Thrombocytopenia, treatment-related ([6]; human, in vivo): 7 (13) n (%)
Vomiting, treatment-related ([6]; human, in vivo): 8 (15) n (%)
patients with at least 1 adverse event ([6]; human, in vivo): 52 (95%) patients
treatment-related serious adverse events nausea and vomiting (each) ([6]; human, in vivo): 2 patients
leukocytes and neutrophils over the course of the study ([6]; in vivo): decreases were observed
patients with other serious adverse events considered treatment related ([6]; in vivo): Five
vital signs or ECG findings ([6]; in vivo): no notable trends
aqueous solubility ([7]; at acidic pH): low
pKa ([7]; free acid): 4.53

AUC0-last [8]: 4962 (164%) nM*h
AUC(0-inf) [8]: 5758 (174%)^d nM*h
Cmax [8]: 287 nM
Tmax [8]: 3.1 (1, 23) h
t1/2 [8]: 23.0 (11.2)^h
mean t1/2 [9]: 15 to 18 h
median Tmax [9]: 4 h
SMILES: COc1cc(Nc2ncc3c(n2)-c2ccc(Cl)cc2C(c2c(F)cccc2OC)=NC3)ccc1C(=O)O[C@@H]1O[C@H](C(=O)O)[C@@H](O)[C@H](O)[C@H]1O [M1, alisertib acylglurcuronide]

AUC0-last [8]: 4977 (58%) nM*h
AUC(0-inf) [8]: 4926 (41%)^i nM*h
Cmax [8]: 100 nM
Tmax [8]: 9.4 (3.0, 48) h
t1/2 [8]: 28 (9.2)^i h
systemic exposure metabolite/parent ratio following multiple dose itraconazole [8]: decreased
mean t1/2 [9]: 19.1 to 22 h
median Tmax [9]: 10 h
change in mean AUC0-inf in the presence of rifampin ([9]; 600 mg): increased
change in mean t1/2 in the presence of rifampin ([9]; 600 mg): decreased
SMILES: COc1cc(Nc2ncc3c(n2)-c2ccc(Cl)cc2C(c2c(O)cccc2F)=NC3)ccc1C(=O)O [M2, O-desmethyl alisertib]
